Assay results from PubChem BioAssay AID2060495 (Molecular Pharmacology Branch, DTP, NCI, 2025).

Tested on: 521955-158-R2-J5-PDC complex spheroid viability
Assay: Anticancer human tumor 521955-158-R2-J5-PDC patient-derived pancreatic carcinoma cell line growth inhibition [GQUAD]
Settings: for IC50: curve of first compound; for viability, T/C: stronger effect = lower value
Summary of the method: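 Viability of tumor cells grown as complex spheroids with endothelial and stromal cells, exposed to drug combinations. Top concentration at or near clinical Cmax (else 10 microM), diluted in half-log increments.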

[1] = second compound 0.0316 µM, first compound 0.0316 µM
[2] = second compound 0.0316 µM, first compound 0.316 µM
[3] = second compound 0.1 µM, first compound 0.0316 µM
[4] = second compound 0.1 µM, first compound 0.316 µM
[5] = second compound 0.316 µM, first compound 0.0316 µM
[6] = second compound 0.316 µM, first compound 0.316 µM
[7] = second compound 1 µM, first compound 0.0316 µM
[8] = second compound 1 µM, first compound 0.316 µM
[9] = second compound 3.16 µM, first compound 0.0316 µM
[10] = second compound 3.16 µM, first compound 0.316 µM
[11] = second compound 10 µM, first compound 0.0316 µM
[12] = second compound 10 µM, first compound 0.316 µM
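Also: spheroids exposed to agents for one week before reading.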
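For viability, T/C in this document: 100% = DMSO vehicle control viability.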

SMILES: CCc1c2c(nc3ccc(O)cc13)-c1cc3c(c(=O)n1C2)COC(=O)[C@]3(O)CC + Cc1cnc(CNC(=O)c2c(=O)c3ccc(N4CCCN(C)CC4)nc3n3c2sc2ccccc23)cn1
- IC50 (second compound 0.0316 µM): 1.04 nM
- IC50 (second compound 0.1 µM): < 0.999 nM
- IC50 (second compound 0.316 µM): < 0.999 nM
- IC50 (second compound 1 µM): < 0.999 nM
- IC50 (second compound 3.16 µM): < 0.999 nM
- IC50 (second compound 10 µM): < 0.999 nM
- viability, T/C (second compound 0.0316 µM, first compound 0.000999 µM): 51.5%
- viability, T/C (second compound 0.0316 µM, first compound 0.00316 µM): 15.3%
- viability, T/C (second compound 0.0316 µM, first compound 0.00999 µM): 11.1%
- viability, T/C [1]: 6.45%
- viability, T/C (second compound 0.0316 µM, first compound 0.0999 µM): 6.82%
- viability, T/C [2]: 2.28%
- viability, T/C (second compound 0.1 µM, first compound 0.000999 µM): 32.7%
- viability, T/C (second compound 0.1 µM, first compound 0.00316 µM): 18.6%
- viability, T/C (second compound 0.1 µM, first compound 0.00999 µM): 12.7%
- viability, T/C [3]: 6%
- viability, T/C (second compound 0.1 µM, first compound 0.0999 µM): 4.68%
- viability, T/C [4]: 1.38%
- viability, T/C (second compound 0.316 µM, first compound 0.000999 µM): 25.2%
- viability, T/C (second compound 0.316 µM, first compound 0.00316 µM): 15.8%
- viability, T/C (second compound 0.316 µM, first compound 0.00999 µM): 12.8%
- viability, T/C [5]: 5.79%
- viability, T/C (second compound 0.316 µM, first compound 0.0999 µM): 4.66%
- viability, T/C [6]: 0.47%
- viability, T/C (second compound 1 µM, first compound 0.000999 µM): 17.1%
- viability, T/C (second compound 1 µM, first compound 0.00316 µM): 13.5%
- viability, T/C (second compound 1 µM, first compound 0.00999 µM): 7.77%
- viability, T/C [7]: 1.4%
- viability, T/C (second compound 1 µM, first compound 0.0999 µM): 0.12%
- viability, T/C [8]: 0.1%
- viability, T/C (second compound 3.16 µM, first compound 0.000999 µM): 13.7%
- viability, T/C (second compound 3.16 µM, first compound 0.00316 µM): 9.61%
- viability, T/C (second compound 3.16 µM, first compound 0.00999 µM): 3.83%
- viability, T/C [9]: 0.1%
- viability, T/C (second compound 3.16 µM, first compound 0.0999 µM): 0.1%
- viability, T/C [10]: 0.14%
- viability, T/C (second compound 10 µM, first compound 0.000999 µM): 12%
- viability, T/C (second compound 10 µM, first compound 0.00316 µM): 9.68%
- viability, T/C (second compound 10 µM, first compound 0.00999 µM): 3.64%
- viability, T/C [11]: 0.13%
- viability, T/C (second compound 10 µM, first compound 0.0999 µM): 0.17%
- viability, T/C [12]: 0.21%

SMILES: C=CCn1c(=O)c2cnc(Nc3ccc(N4CCN(C)CC4)cc3)nc2n1-c1cccc(C(C)(C)O)n1 + Cc1cnc(CNC(=O)c2c(=O)c3ccc(N4CCCN(C)CC4)nc3n3c2sc2ccccc23)cn1
- IC50 (second compound 0.0316 µM): 77.1 nM
- IC50 (second compound 0.1 µM): 124 nM
- IC50 (second compound 0.316 µM): < 31.6 nM
- IC50 (second compound 1 µM): < 31.6 nM
- IC50 (second compound 3.16 µM): < 31.6 nM
- IC50 (second compound 10 µM): < 31.6 nM
- viability, T/C [1]: 67%
- viability, T/C (second compound 0.0316 µM, first compound 0.1 µM): 44.9%
- viability, T/C [2]: 19.5%
- viability, T/C (second compound 0.0316 µM, first compound 1 µM): 10%
- viability, T/C (second compound 0.0316 µM, first compound 3.16 µM): 7.12%
- viability, T/C (second compound 0.0316 µM, first compound 10 µM): 11.2%
- viability, T/C [3]: 53.5%
- viability, T/C (second compound 0.1 µM, first compound 0.1 µM): 56%
- viability, T/C [4]: 30.3%
- viability, T/C (second compound 0.1 µM, first compound 1 µM): 17.6%
- viability, T/C (second compound 0.1 µM, first compound 3.16 µM): 13.1%
- viability, T/C (second compound 0.1 µM, first compound 10 µM): 11.6%
- viability, T/C [5]: 35.1%
- viability, T/C (second compound 0.316 µM, first compound 0.1 µM): 45.4%
- viability, T/C [6]: 28.4%
- viability, T/C (second compound 0.316 µM, first compound 1 µM): 20.1%
- viability, T/C (second compound 0.316 µM, first compound 3.16 µM): 15.9%
- viability, T/C (second compound 0.316 µM, first compound 10 µM): 11.2%
- viability, T/C [7]: 17.4%
- viability, T/C (second compound 1 µM, first compound 0.1 µM): 19.6%
- viability, T/C [8]: 21.1%
- viability, T/C (second compound 1 µM, first compound 1 µM): 17.7%
- viability, T/C (second compound 1 µM, first compound 3.16 µM): 14.3%
- viability, T/C (second compound 1 µM, first compound 10 µM): 10.1%
- viability, T/C [9]: 13.3%
- viability, T/C (second compound 3.16 µM, first compound 0.1 µM): 16.3%
- viability, T/C [10]: 17.8%
- viability, T/C (second compound 3.16 µM, first compound 1 µM): 11.6%
- viability, T/C (second compound 3.16 µM, first compound 3.16 µM): 11.7%
- viability, T/C (second compound 3.16 µM, first compound 10 µM): 2.19%
- viability, T/C [11]: 11.6%
- viability, T/C (second compound 10 µM, first compound 0.1 µM): 15%
- viability, T/C [12]: 15.4%
- viability, T/C (second compound 10 µM, first compound 1 µM): 8.4%
- viability, T/C (second compound 10 µM, first compound 3.16 µM): 0.28%
- viability, T/C (second compound 10 µM, first compound 10 µM): 0.23%
